Results taken from patent publication US20130331381A1, “Treatment of Cancer WIth Dopamine Receptor Antagonists” (McMaster University, priority 2011, published 2013).
pEC50: −log10 of the molar value. Counter-ions that a name gives are not always drawn. Like-named read-outs stand apart in the source and are kept apart here.

Legend:
[1] = system: HL-60, MV4-11 and OCI-AML3; assay: Cytotoxicity to leukemic cell lines (normalized cell number, 72 h); format: cell-based, human; settings: for normalized cell number / toxicity: 10 μM
Protocol: (§1) All three lines are leukemic cell lines. HL-60 was derived from promyelocytic AML whereas MV 4-11 and OCI-AML3 are representative of AML. Each compound was incubated with the cells for 72 h. The control was DMSO (ie the vehicle used for the compound) for 72 h. Each condition had three replicates.
The dopamine receptor antagonist and phenothiazine-related compound chlorpromazine was also investigated for effects on the AML cell lines HL-60, MV4-11 and OCI-AML3. Testing was performed as set out in Example 1.

[2] = system: HL-60, OCI-AML2 and OCI-AML3; assay: Cytotoxicity of DR agonists and antagonists against AML cell lines; format: cell-based, human; settings: CLOZ at higher concentrations; FIG. 6
Protocol: as §1
A series of dopamine receptor agonists, D3-antagonists, DR1 & 5-antagonists and multi-receptor antagonists were tested for cytotoxicity against three AML cell lines HL-60, OCI-AML2 and OCI-AML3. Testing was performed as set out in Example 1.

[3] = system: primary AML cells; assay: Methylcellulose blast-CFU assay, primary AML cells; format: cell-based, human; settings: for AML-blast CFU potential: salinomycin at 1 μM and 10 μM, 24 h treatment, 5 AML patient samples
Protocol: (§3) Normal HSCs and progenitors were sourced from either mobilized peripheral blood or umbilical cord blood of health patients. Primary AML cells were taken from patients diagnosed with AML. Both normal HSCs and primary AML cells were cultured under standard in vitro methocellulose assay conditions (see http://www.stemcell.com/en/Products/All-Products/MethoCult-H4434-Classic.aspx as well as Clinton Campbell et al. The human stem cell hierarchy is defined by a functional dependence on Mcl-1 for self-renewal capacity. Blood 116 (9) 1433-1442 (Jun. 4, 2010), hereby incorporated by reference) for at least 14 days before the number of colonies were recorded.
(§4) AML patient blasts were cultured in IMDM supplemented with 5% heated inactivated FBS (HyClone), 5 ng/mL IL3 (R&D systems), 5×10^−5 M β-mercaptoethanol (Sigma) and BIT (StemCell Technologies). HSC media contained IMDM supplemented with 1% BSA (Sigma), 100 ng/mL SCF (R&D systems), 100 ng/mL Flt-3L (R&D systems) and 20 ng/mL TPO (R&D systems). Patient HSPC and AML samples were treated with compound or DMSO-vehicle (0.1%) for 24 h prior to CFU plating or xenotransplantation studies.
(§5) AML patient or CB lin− cells were cultured 24 hours in the presence of compound or DMSO-vehicle (0.1%) control. AML cells were plated at 50 000 cells/mL in Methocult GF H4434 (Stem Cell Technologies). CB lin− cells were plated at 1000 cells/mL in Methocult GF H4434 (Stem Cell Technologies). Colonies were scored after 14 days of culture using standard morphological criteria.

[4] = system: CD14+ cells in primary AML; assay: Frequency of CD14+ cells in primary AML by flow cytometry; format: cell-based, human; settings: 10 μM, 72 h; control 100%
[5] = system: v1H9-Oct4-GFP cells; assay: Chemical screen for differentiation of neoplastic hPSC (GFP and Hoechst); format: cell-based; settings: Homo sapiens; for activity at 10 µM: 72 h, read-out: Hoechst % RA (residual activity)
Protocol: Chemical screens involved v1H9-Oct4-GFP cells seeded at 5,000 cells per well in mouse embryonic fibroblast conditioned media (MEFCM) supplemented with 8 ng/ml bFGF. 24 hours later the media was exchanged for MEFCM with compounds at 10 μM and 0.1% DMSO, 0.1% DMSO (−BMP4) or 100 ng/ml of BMP4 and 0.1% DMSO (+BMP4) for 48 hours before being exchanged with fresh media with compound for a further 24 h (total compound treatment time 72 h) prior to being fixed and prepared for automated imaging and plate reader analysis. Confluent H9 & fibroblast-derived iPSC were seeded at 10,000 cells per well in MEFCM supplemented with 8 ng/ml bFGF. 24 hours later the cells were treated with compounds at 10 μM and 0.1% DMSO, 0.1% DMSO (−BMP4) or 100 ng/ml of BMP4 and 0.1% DMSO (+BMP4). Fresh MEFCM supplemented with compounds was exchanged daily for 5 days. On day 5, hPSC's were fixed and prepared for automated imaging and plate reader analysis. See supplementary experimental procedures for further details.
Cells were fixed in 2% paraformaldehyde and stained with 10 μg/mL Hoechst 33342 (Invitrogen) with a Combi Multidrop Dispenser (Thermo). For experiments that involved Oct4 immunocytochemistry, a monoclonal antibody for Oct4 (BD) was used along with an Alexa-Fluor-647 secondary (Invitrogen). Immunocytochemical staining was performed by a Janus automated liquid handler (Perkin Elmer). Images were acquired at 10×N.A with an Arrayscan HCS VTI Reader (Cellomics) by means of epi-fluorescence illumination and standard filter sets.
Image analysis was performed using custom scripts in Acapella software (Perkin Elmer). Nuclear objects were segmented from the Hoechst signal. For neoplastic cell lines, object intensity analysis was performed on GFP positive cells only. For normal cell lines, the fraction of Alexa-Fluor-647-positive cells was quantified. Images and well-level data were stored and analysed in a Columbus Database (Perkin Elmer) and further data analysis, compounds registration and hit identification in ActivityBase (IDBS).
These Collections have been previously scrutinized in numerous other mammalian cell lines (Diallo et al., 2010; Shoemaker, 2006).

[6] = system: neoplastic hPSCs (v1H9-Oct4-GFP); assay: Flow cytometry of Oct4 in neoplastic hPSCs; format: cell-based, human; settings: FIG. 10b
[7] = system: neoplastic hPSCs; assay: TaqMan Low-Density Array-qPCR of differentiation genes; format: cell-based, human; settings: thioridazine-treated neoplastic hPSCs
Protocol: Cells in specific conditions were collected and RNA was extracted by using RNeasy kit (Qiagen), complementary DNA (cDNA) generation by using SuperScript III® cDNA synthesis kit (Invitrogen), pre-amplification and TaqMan® array reaction (Applied Biosystems) were performed according to manufacturer's instructions. The gene expression profile for each treated cell population was analyzed using TaqMan® Stem Cell Pluripotency Array Card on ViiA 7 Real-Time PCR System (Applied Biosystems). Each reaction sample was dispensed into loading wells on the array card and centrifuged twice at 336×g for 1 min each time, sealed, and placed in the thermal cycler. The following cycling conditions were used for all array card applications: 45° C. for 10 min, 94° C. for 10 min, and 40 cycles of 94° C. for 30 s followed by 60° C. for min. Array data were normalized to 18S RNA and GAPDH and comparisons were performed using data analysis 2.0 software (Applied Biosystems).

[8] = system: patient AML cells; assay: CD11b granulocytic maturation in patient AML cells; format: cell-based, human; settings: 10 μM, up to 96 hours
[9] = system: AML LSCs; assay: Xenotransplantation of compound-treated AML cells; format: in vivo, human; settings: AML cells treated at 10 μM, NSG mice
Protocol: NOD.Cg-Prkdc^scid II2rg^tm1Wjl/SzJ adult mice (NSG) were sub-lethally irradiated with 315 rads 24 hours prior transplantation. 0.8−1.0×10^7 AML MNCs or 1.5−1.8×10^5 CB lin− hematopoietic cells treated with compound or DMSO-vehicle for 24 h were injected via tail vein (IV). After 6-10 weeks, animals were culled, and the BM and spleen were analyzed for the presence of human cells by flow cytometry (LSRII, BD) and data was analyzed using FlowJo software (Tree Star Inc). For secondary HSPC transplants, equal number of engrafted human cells from CB lin− transplants were injected IV in adult irradiated NSG mice as described for primary transplants.

[10] = system: AML-OCI2 and AML-OCI3; assay: Volumetric cell counting of AML cell lines; format: cell-based, human; settings: 72 h, serum-free conditions
Protocol: The number of AML-OCI2 and AML-OCI3 cells present after 72 h treatment with DR antagonists (FIG. 16b) and agonist (FIG. 16c-d) were counted by measuring the number of events within a fixed volume following the grating strategy defined by forward scatter and side scatter clustering, 7AAD− and Hoechst+.
(§2) Due to the bioavailability of dopamine in fetal bovine serum (FBS) (Little et al., 2002), serum-free conditions were employed to assess the role of DRs in AML. […] DR D2-family and D1-family exert opposing actions on intracellular signaling leading to differential biological effects (Self et al., 1996).

[11] = system: patient AML samples, DR+ and DR- subfractions; assay: Blast-CFU content of DR+ and DR- sorted patient AML samples; format: cell-based, human; settings: 24 h treatment
Description: as §2

[12] = system: normal HSCs and progenitors (CB lin-)
Protocol: as §3, §4, §5

[13] = system: normal HSCs and progenitors (CB lin-); assay: Methylcellulose colony forming assay, normal HSCs / HSPCs; settings: 10 μM, at least 14 days; DMSO control about 100
Protocol: as §3, §4, §5

Q: How did the normalized cell number ([1]; 0.1 μM and 1 μM) turn out when `CSc1ccc2c(c1)N(CCC1CCCCN1C)c1ccccc1S2` (racemic) [thioridazine, 10-{2-[(RS)-1-Methylpiperidin-2-yl]ethyl}-2-methylsulfanylphenothiazine] was run?
A: little effect

Q: And the “normalized cell number / toxicity” value [1]?
A: almost zero

Q: What about the “cytotoxicity of AML cell lines” value [2] of the same compound?
A: significant effect

Q: And the “number of CFU colonies, AML cells” value ([3]; 10 μM, at least 14 days, control about 22)?
A: 1.6 blast colonies

Q: And the “AML-blast CFU potential” value [3]?
A: reduced

Q: And the “normalized frequency of CD14+ cells” value [4]?
A: 20%

Q: What about the activity at 10 µM ([5]; 10 μM) of the same compound?
A: > 30%

Q: What about the “cell number, neoplastic hPSCs” value [6] of the same compound?
A: reductions

Q: What about the “levels of Oct4 in neoplastic hPSCs” value [6] of the same compound?
A: reductions

Q: And the upregulated differentiation-associated genes [7]?
A: 21 of 50

Q: What about the “frequency of CD11b granulocytic AML-blast cells” value [8] of the same compound?
A: marked increase

Q: And the “AML LSC capacity (CD45+ CD33+ blast engraftment)” value [9]?
A: significantly reduce

Q: And the “number of AML cells” value [10]?
A: reduced

Q: And the “blast-CFU generation, DR+ subfraction” value [11]?
A: reduction

Q: And the “blast-CFU generation, DR- subfraction” value [11]?
A: no reduction

Q: And the “HSPC CFU potential” value [12]?
A: little effect

Q: And the “colony forming potential of normal HSCs, total colonies” value [13]?
A: about 66 total colonies

Q: With `Br.CCCN(CCC)[C@@H]1CCc2ccc(O)cc2C1` [70H-DPAT, R(+)-7-Hydroxy-DPAT hydrobromide] as the compound, how does the “number of AML cells” value [10] read?
A: increased

Q: `Oc1cc2c(cc1O)[C@@H](c1ccccc1)CNCC2` [SKF38393, (R)-(+)-SKF-38393 hydrochloride] was tested. Which “number of AML cells” value [10] did it give?
A: significant reduction

Q: For `Cn1cnc([N+](=O)[O-])c1Sc1ncnc2nc[nH]c12` [azathioprine], which activity at 10 µM ([5]; 10 μM) is on record?
A: > 30%

Q: Which “normalized cell number / toxicity” value [1] does the source give for `CN(C)CCCN1c2ccccc2Sc2ccc(Cl)cc21` [chlorpromazine, Chlorpromazine hydrochloride] here?
A: toxic

Q: What about the “cytotoxicity of AML cell lines” value [2] of the same compound?
A: significant effect

Q: And the “number of AML cells” value [10]?
A: reduced

Q: For `CN1CCN(C2=Nc3cc(Cl)ccc3Nc3ccccc32)CC1` [clozapine, Clozapine], which “cytotoxicity of AML cell lines” value [2] is on record?
A: significant effect

Q: Which activity at 10 µM [5] does the source give for `CNC1CC(c2ccc(Cl)c(Cl)c2)c2ccccc21` (stereo not shown) [indatraline] here?
A: > 30%

Q: What does the source list for `OC(c1cc(C(F)(F)F)nc2c(C(F)(F)F)cccc12)C1CCCCN1` (stereo not shown) [mefloquine]?
A: AML-blast CFU potential [3]: reduced; activity at 10 µM ([5]; 10 μM): > 30%; pEC50 ([5]; dose response, FIG. 9g, read-out: EC50, reduction in GFP intensity): > 5.00; cell number, neoplastic hPSCs [6]: reductions; levels of Oct4 in neoplastic hPSCs [6]: reductions; AML LSC capacity (CD45+ CD33+ blast engraftment) [9]: ineffective; HSPC CFU potential [12]: little effect

Q: `CC[C@@H](C(=O)[C@@H](C)[C@@H](O)[C@H](C)[C@@H]1O[C@@H]([C@@H](CC)C(=O)O)CC[C@@H]1C)[C@H]1O[C@]2(C=C[C@@H](O)[C@]3(CC[C@@](C)([C@H]4CC[C@](O)(CC)[C@H](C)O4)O3)O2)[C@H](C)C[C@@H]1C` [salinomycin] was tested. Which “AML-blast CFU potential” value [3] did it give?
A: reduced

Q: And the “HSPC CFU potential” value [12]?
A: reduced
